Source: ChEMBL document CHEMBL3627686, “Discovery of the oxazabicyclo[3.3.1]nonane derivatives as potent and orally active GPR119 agonists” (Bioorg Med Chem Lett, 2015)
pEC50: −log10 of the molar value. Converted amounts (≈) assume the structure as drawn. The source made the active and inactive calls. No cut-off for these calls is given here.

Legend:
[1] = target: T1, Glucose-dependent insulinotropic receptor (Homo sapiens) (UniProt Q8TDV5); experiment: (§1) Agonist activity at human GPR119 expressed in HEK293 cells assessed as cAMP accumulation after 30 mins by fluorescence analysis; type: functional, cell-based
T1 sequence (whole entry): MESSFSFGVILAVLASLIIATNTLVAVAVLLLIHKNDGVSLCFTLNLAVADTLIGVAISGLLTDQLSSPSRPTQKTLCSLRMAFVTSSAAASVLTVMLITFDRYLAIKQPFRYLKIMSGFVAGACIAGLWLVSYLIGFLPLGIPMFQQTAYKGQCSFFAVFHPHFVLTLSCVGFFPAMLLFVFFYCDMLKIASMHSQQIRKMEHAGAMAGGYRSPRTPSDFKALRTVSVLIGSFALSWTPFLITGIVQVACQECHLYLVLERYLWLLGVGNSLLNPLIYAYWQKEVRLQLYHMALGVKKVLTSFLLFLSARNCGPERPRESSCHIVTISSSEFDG

[2] = target: T2, Glucose-dependent insulinotropic receptor (Mus musculus, UniProt Q7TQP3); experiment: (§2) Agonist activity at mouse GPR119 expressed in HEK293 cells assessed as cAMP accumulation after 30 mins by fluorescence analysis; type: functional, cell-based
T2 sequence (Q7TQP3 whole entry): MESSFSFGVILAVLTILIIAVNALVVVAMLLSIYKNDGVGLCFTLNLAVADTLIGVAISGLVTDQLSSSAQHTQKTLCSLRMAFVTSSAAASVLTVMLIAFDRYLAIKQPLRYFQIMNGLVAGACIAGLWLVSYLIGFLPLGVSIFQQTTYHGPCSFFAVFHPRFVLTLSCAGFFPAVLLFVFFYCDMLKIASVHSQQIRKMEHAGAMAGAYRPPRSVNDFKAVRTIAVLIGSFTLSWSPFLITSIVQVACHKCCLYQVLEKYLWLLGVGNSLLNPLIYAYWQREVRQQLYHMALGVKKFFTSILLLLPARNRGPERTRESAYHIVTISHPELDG

[3] = target: T3, Glucose-dependent insulinotropic receptor (Homo sapiens, UniProt Q8TDV5); experiment: as §1; type: functional, cell-based
T3 sequence (Q8TDV5 whole entry): T1 sequence (whole entry)

[4] = target: T4, Glucose-dependent insulinotropic receptor (Mus musculus) (UniProt Q7TQP3); experiment: as §2; type: functional, cell-based
T4 sequence (whole entry): T2 sequence (Q7TQP3 whole entry)

Plasma [5] = experiment: Fraction unbound in C57B1/6NCrl mouse plasma at 3 mg/kg, po after 1 hr; type: ADME, organism-based; settings: in vivo
[6] = Solubility of compound at pH 7.4; type: physicochemical; settings: buffer
Mus musculus [7] = experiment: Decrease in blood glucose level in C57B1/6NCrl mouse at 3 mg/kg, po administered 30 mins prior to oral glucose challenge by glucose tolerance test relative to control; type: functional
[8] = AUC (0 to 6 hrs) in Sprague-Dawley rat plasma at 10 mg/kg, po; type: ADME, organism-based; set-up: time < 6 hr, dose 10 mg/kg, route oral
Mus musculus [9] = experiment: Decrease in blood glucose level in C57B1/6NCrl mouse at 0.1 mg/kg, po administered 30 mins prior to oral glucose challenge by glucose tolerance test relative to control; type: functional
Plasma [10] = experiment: Plasma concentration in C57B1/6NCrl mouse at 3 mg/kg, po; type: ADME, organism-based; settings: in vivo
Plasma [11] = experiment: Plasma concentration in C57B1/6NCrl mouse at 0.1 mg/kg, po; type: ADME, organism-based; settings: in vivo
Mus musculus [12] = experiment: Decrease in blood glucose level in C57B1/6NCrl mouse drug administered 30 mins prior to oral glucose challenge by glucose tolerance test; type: functional, organism-based
Plasma [13] = experiment: Plasma concentration in C57B1/6NCrl mouse at 1 mg/kg, po; type: ADME, organism-based; settings: in vivo
Plasma [14] = experiment: Plasma concentration in C57B1/6NCrl mouse at 0.3 mg/kg, po; type: ADME, organism-based; settings: in vivo
Mus musculus [15] = experiment: Decrease in blood glucose level in C57B1/6NCrl mouse at 3 mg/kg, po administered 30 mins prior to oral glucose challenge by glucose tolerance test; type: functional, organism-based

| Structure (SMILES) | %max [1] | pEC50 [2] | pEC50 [3] | %max [4] | other results |
| --- | --- | --- | --- | --- | --- |
| Cc1c(Nc2ccc(C#N)cc2Cl)ncnc1OC1CC2COCC(C1)N2C(=O)OC(C)(C)C (stereo in doubt; 14) [listing 1 of 2 here] | 54% | – | – | 34% | – |
| Cc1c(Nc2ccc(C#N)cc2Cl)ncnc1OC1C2COCC1CN(C(=O)OC(C)(C)C)C2 (stereo in doubt; 19) [listing 1 of 2 here] | – | 7.55 | 8.15 | – | – |
| Cc1c(Oc2ccc(C#N)cc2Cl)ncnc1OC1C2COCC1CN(C(=O)OC1(C)CC1)C2 (configuration not stated) | 78% | 6.89 | 7.80 | 143% | inhibition in vivo at 3 mg/kg (Mus musculus [7]): 75%; AUC(0-t) at 6 h [8]: 1.49 µM·h |
| Cc1c(Nc2ccc(C#N)cc2Cl)ncnc1OC1C2COCC1CN(C(=O)OC(C)(C)C)C2 (stereo in doubt; 19) [listing 2 of 2 here] | 65% | – | – | 110% | – |
| Cc1c(Nc2ccc(C#N)cc2Cl)ncnc1OC1C2COCC1CN(C(=O)OC1(C)CC1)C2 (configuration not stated) | 74% | 7.48 | 8.40 | 102% | Cp(f) (Plasma [5]): 3 nM; solubility [6]: 6 µM (≈ 2.9 µg/mL); inhibition in vivo at 3 mg/kg (Mus musculus [7]): 79%; AUC(0-t) at 6 h [8]: 4.98 µM·h |
| Cc1c(Nc2ccc(S(C)(=O)=O)cc2Cl)ncnc1OC1CC2COCC(C1)N2C(=O)OC(C)(C)C (configuration not stated) | 49% | 6.72 | 7.36 | 78% | Activity (Mus musculus [15]): Active |
| Cc1c(Nc2ccc(C#N)cc2Cl)ncnc1OC1C2COCC1CN(S(=O)(=O)C1CC1)C2 (stereo in doubt; 18) [listing 1 of 2 here] | – | – | 5.92 | – | – |
| Cc1c(Nc2ccc(C#N)cc2Cl)ncnc1OC1C2COCC1CN(S(=O)(=O)C1CC1)C2 (stereo in doubt; 18) [listing 2 of 2 here] | 52% | – | – | – | – |
| CC1(OC(=O)N2CC3COCC(C2)C3Oc2cc(Nc3ccc(C#N)cc3Cl)ncn2)CC1 (configuration not stated) | 88% | 6.60 | 7.60 | 105% | inhibition in vivo at 3 mg/kg (Mus musculus [7]): 78%; AUC(0-t) at 6 h [8]: 1.19 µM·h |
| COc1c(Nc2ccc(C#N)cc2F)ncnc1OC1C2COCC1CN(C(=O)OC1(C)CC1)C2 (configuration not stated) | 99% | 7.33 | 8.30 | 116% | inhibition in vivo at 3 mg/kg (Mus musculus [7]): 78%; AUC(0-t) at 6 h [8]: 1.43 µM·h |
| Cc1c(Nc2ccc(C#N)cc2Cl)ncnc1OC1C2COCC1CN(C(=O)OC(C)(C)C)C2 (stereo in doubt; 20) [listing 2 of 2 here] | 83% | – | – | 69% | – |

Second part, led by results:

| %max [1] | pEC50 [2] | pEC50 [3] | %max [4] | Structure (SMILES) | other results |
| --- | --- | --- | --- | --- | --- |
| 78% | – | – | – | Cc1ncccc1Nc1ncnc(OC2C3COCC2CN(C(=O)OC(C)C)C3)c1C (stereo in doubt; 21) [listing 1 of 2 here] | – |
| – | 6.85 | 7.70 | – | Cc1c(Nc2ccc(C#N)cc2Cl)ncnc1OC1C2COCC1CN(C(=O)OC(C)(C)C)C2 (stereo in doubt; 20) [listing 1 of 2 here] | – |
| – | 7.00 | 7.77 | – | Cc1c(Nc2ccc(C#N)cc2Cl)ncnc1OC1CC2COCC(C1)N2C(=O)OC(C)(C)C (stereo in doubt; 15) [listing 1 of 2 here] | – |
| 56% | – | – | 53% | Cc1c(Nc2ccc(C#N)cc2Cl)ncnc1OC1C2COCC1CN(S(=O)(=O)C1CC1)C2 (stereo in doubt; 17) [listing 1 of 2 here] | – |
| 87% | 6.29 | 7.15 | 79% | Cc1c(Nc2ccc(S(C)(=O)=O)cc2F)ncnc1OC1CC2COCC(C1)N2C(=O)OC1(C)CC1 (configuration not stated) | Cp(f) (Plasma [5]): 100 nM; solubility [6]: 3.4 µM (≈ 1.77 µg/mL); inhibition in vivo at 3 mg/kg (Mus musculus [7]): 84%; AUC(0-t) at 6 h [8]: 2.4 µM·h |
| – | 6.55 | 6.94 | – | Cc1c(Nc2ccc(C#N)cc2Cl)ncnc1OC1CC2COCC(C1)N2C(=O)OC(C)(C)C (stereo in doubt; 14) [listing 2 of 2 here] | – |
| – | – | 7.19 | – | Cc1ncccc1Nc1ncnc(OC2C3COCC2CN(C(=O)OC(C)C)C3)c1C (stereo in doubt; 21) [listing 2 of 2 here] | – |
| – | – | < 5.00 | – | Cc1ncccc1Nc1ncnc(OC2C3COCC2CN(C(=O)OC(C)C)C3)c1C (stereo in doubt; 22) | – |
| 88% | 7.37 | 8.15 | 99% | COc1c(Nc2ccc(C#N)cc2Cl)ncnc1OC1C2COCC1CN(C(=O)OC1(C)CC1)C2 (configuration not stated) | solubility [6]: 30 µM (≈ 15 µg/mL); inhibition in vivo at 0.1 mg/kg (Mus musculus [9]): 40%; concentration (Plasma [10]): 350 nM; concentration (Plasma [11]): 20 nM; inhibition (Mus musculus [12]): Dose-dependent effect; concentration (Plasma [13]): 220 nM; inhibition in vivo at 3 mg/kg (Mus musculus [7]): 78%; concentration (Plasma [14]): 90 nM; AUC(0-t) at 6 h [8]: 8.23 µM·h |
| 64% | 5.80 | 6.57 | 100% | Cc1c(Nc2ccc(C#N)cc2Cl)ncnc1OC1CC2COCC(C1)N2S(=O)(=O)C1CC1 (configuration not stated) | – |
| – | 6.07 | 7.29 | – | Cc1c(Nc2ccc(C#N)cc2Cl)ncnc1OC1C2COCC1CN(S(=O)(=O)C1CC1)C2 (stereo in doubt; 17) [listing 2 of 2 here] | – |
| 38% | – | – | 57% | Cc1c(Nc2ccc(C#N)cc2Cl)ncnc1OC1CC2COCC(C1)N2C(=O)OC(C)(C)C (stereo in doubt; 15) [listing 2 of 2 here] | Activity (Mus musculus [15]): inactive |
